Measurements reported in US20230027075A1, “SULFONAMIDE COMPOUNDS TARGETING CD73 AND ADENOSINE RECEPTORS” (Aurigene Discovery Technologies Limited, priority 2019, published 2023).

Tests used:
A2aR = biological target: T1, A2aR (Homo sapiens, UniProt P29274); assay: A2aR biochemical assay (TR-FRET binding, Tag-lite A2aR labelled cells, fluorescent antagonist); details: 20 μM compound; 10 nM fluorescent A2aR antagonist; vs DMSO control; read-out: % inhibition at 20 μM (Percent inhibition data in A2aR)
T1 construct: expressed in transfected cells
T1 sequence (P29274 whole entry): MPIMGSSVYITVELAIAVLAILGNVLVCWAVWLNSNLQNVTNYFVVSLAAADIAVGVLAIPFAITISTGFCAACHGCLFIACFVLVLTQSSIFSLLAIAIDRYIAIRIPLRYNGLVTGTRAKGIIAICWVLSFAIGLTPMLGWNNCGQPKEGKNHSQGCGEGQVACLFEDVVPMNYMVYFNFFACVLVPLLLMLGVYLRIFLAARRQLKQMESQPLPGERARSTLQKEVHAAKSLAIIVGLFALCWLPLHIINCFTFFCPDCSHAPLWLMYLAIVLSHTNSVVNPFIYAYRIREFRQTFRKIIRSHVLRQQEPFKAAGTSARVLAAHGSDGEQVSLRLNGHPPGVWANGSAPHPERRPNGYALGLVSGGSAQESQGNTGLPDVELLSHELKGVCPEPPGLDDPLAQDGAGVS
Description: The compounds of present invention were assayed for A2aR enzyme binding activity in a TR-FRET based method. Typically, 10 μL of A2aR labelled cells in assay buffer (Tag-lite, 1×) is added to a 384-well plate containing 5 μL of a compound of present invention in final 1% DMSO, serially diluted in 1:5 in a 5-6 point titration. The aforesaid compound and cells are incubated for 30 minutes at room temperature. Next, 5 μL of A2aR antagonist (fluorescent ligand) in assay buffer is added to the plate. The final concentration of A2aR antagonist is 10 nM. Following 30 minutes reaction at room temperature, the plate was read on a plate reader (Ex: 340 nm Em: 615 nm and 665 nm) to measure the binding of test compound to A2aR cells. The results are interpreted as percentage inhibition as presented in Table-2A of binding by the test compound with respect to the DMSO control.

[1] = biological target: T2, human-CD73 (Trp27-Lys547, His-tag) (Homo sapiens, UniProt P21589); assay: CD73 biochemical assay (colorimetric, Malachite Green phosphate detection); details: 2 nM CD73, 50 μM AMP; for inhibition at 20 µM: 20 μM compound, read-out: % inhibition at 20 μM (Percent inhibition data in CD73)
T2 construct: human-CD73 (Trp27-Lys547, His-tag); His-tag
T2 sequence (P21589 27-547): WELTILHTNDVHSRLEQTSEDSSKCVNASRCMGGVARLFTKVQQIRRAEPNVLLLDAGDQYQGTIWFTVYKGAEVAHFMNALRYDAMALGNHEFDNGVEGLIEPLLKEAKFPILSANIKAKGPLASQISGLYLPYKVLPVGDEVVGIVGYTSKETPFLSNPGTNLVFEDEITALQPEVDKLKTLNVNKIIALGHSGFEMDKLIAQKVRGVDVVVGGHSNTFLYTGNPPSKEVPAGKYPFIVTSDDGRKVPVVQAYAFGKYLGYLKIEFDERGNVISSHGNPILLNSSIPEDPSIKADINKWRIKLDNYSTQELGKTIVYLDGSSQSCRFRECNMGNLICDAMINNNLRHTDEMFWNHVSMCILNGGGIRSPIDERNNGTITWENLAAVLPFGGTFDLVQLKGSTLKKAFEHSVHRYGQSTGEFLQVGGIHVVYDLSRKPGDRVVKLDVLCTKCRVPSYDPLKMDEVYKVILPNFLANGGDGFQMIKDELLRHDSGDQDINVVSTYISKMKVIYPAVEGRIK
Description: A colorimetric-based method was used for assaying compounds of the invention for CD73 enzyme inhibitory activity. Human CD73 catalyzes the conversion of AMP to adenosine with the release of orthophosphate. A Malachite Green Phosphate Detection kit is used to measure the formation of orthophosphate product. […] A compound of the present invention and enzyme are incubated for 30 minutes at room temperature. Next, 20 μL of AMP in assay buffer is added to the plate. The final concentration of CD73 and AMP are 2 nM and 50 μM respectively. Following 30 minutes reaction at room temperature, 20 μL of Malachite reagent is added to all the reaction wells. The formation of green complex formed between Malachite Green, molybdate and free orthophosphate is measured on a plate reader (620 nm).

| SMILES | inhibition at 20 µM (A2aR) [%] | inhibition at 20 µM [1] [%] | IC50 ([1]; four-parameter curve fit, read-out: Potency (IC50 values) of selected compounds in CD73, group) [nM] |
| --- | --- | --- | --- |
| NC(=O)c1cc(S(=O)(=O)Nc2ccc(CCNc3nc(N)n4nc(-c5ccco5)nc4n3)c(F)c2)cc(Cl)c1O [Example A6, 5-(N-(4-(2-((7-amino-2-(furan-2-yl)-[1,2,4]triazolo[1,5-a][1,3,5]triazin-5-yl)amino)ethyl)-3-fluorophenyl)sulfamoyl)-3-chloro-2-hydroxybenzamide] | 79 | 98 | 110 to 1000 |
| COc1c(Cl)cc(S(=O)(=O)Nc2ccc(CCCNc3nc(N)n4nc(-c5ccco5)nc4n3)cc2)cc1C(N)=O [Example A16, 5-(N-(4-(3-((7-amino-2-(furan-2-yl)-[1,2,4]triazolo[1,5-a][1,3,5]triazin-5-yl)amino)propyl)phenyl)sulfamoyl)-3-chloro-2-methoxybenzamide] | 83 | 63 |  |
